# Data reported in patent US8614179B2, “Antibacterial combination therapy for the treatment of gram positive bacterial infections” (E-Therapeutics PLC, priority 2008, dated 2013).
# Like-named read-outs stand apart in the source and are kept apart here.
# Test system: Clostridium difficile
# Assay: MIC against clinical isolates of Clostridium difficile
# Format: cell-based
# Conditions: Table 5, miconazole alone or with 0.5 mg/L nisin
# Procedure: In example experiments miconazole nitrate, econazole nitrate and clotrimazole were dissolved in DMSO. Colistin, D-cycloserine, fosfomycin and polymixin B were dissolved in water. Nisin was suspended at 10 mg/mL in 0.02 M HCl, and the supernatant fraction following centrifugation at 10,000 g for 10 mins was used in the following experiments.
# Other solvents that may be used include caster oil, pyridine, and 0.9% saline. For IV administration agents may be solubilised in polyethoxylated caster oil, or cyclodextrins such as sulfobutylether7-βcyclodextrin or hydroxypropyl-β-cyclodextrin and lactic acid. Minimum inhibitory concentrations (MICs) of a range of clinical and control bacterial organisms were measured according to BSAC (British Society for Antimicrobial Chemotherapy) guidelines (Andrews 2001), for single agents. The method of determining MICs of imidazole with colistin, D-cycloserine, fosfomycin, polymixin B, or nisin is described briefly as follows. MICs were measured by agar dilution. Kill curves were performed in accordance with the methods of Garrison and Nuemiller, 2007. Briefly kill profiles were generated by logarithmically plotting mean CFU/mL data over time. Total logarithmic reductions in bacterial counts were determined by subtracting 24 h CFU/mL values from starting inocula.
# Stock solutions were prepared at concentrations of 1000 mg/L and 100 mg/L. To determine the MIC of miconazole, the appropriate amount of each stock solution were added to separate Petri dishes give a range of final concentrations (after the addition of 20 mL molten agar): from 0.12 to 32 mg/L. To determine the MICs of miconazole with the specific agent active on a bacterial cell surface, these concentrations of miconazole were used in addition to a fixed sub-inhibitory amount of the agent active on a bacterial cell surface. […] Volumes (20 mL) of cooled molten IST agar (oxoid) was added to each Petri dish and mixed by swirling. After drying, the plates were stored at 4° C. and protected from light. Plates were used on the day of preparation.
# The test organisms were grown overnight in 5 mL IST broth. Using a dilution in 0.9% saline of 1:100, the appropriate agar plates were inoculated using a multipoint inoculator.
# Agar plates and microtitre plates were incubated at 37° C. in air for 18-20 hours.
# The MIC is the minimum amount of an antibiotic at which there is no visible growth of bacteria. Tiny single colonies or faint hazes were not counted as growth. Synergy was reported if the inhibitory effect of the drugs in combination were greater than the sum of the inhibitory effects of each drug singly. The concentration of miconazole, with or without the cell membrane or cell wall active agent, capable of inhibiting the growth of 50% and 90% of the strains tested is reported as the MIC50 and MIC90 respectively. The range of MICs for each group of bacterial strains is also reported.
smiles,measurement,setting,value
"Clc1ccc(COC(Cn2ccnc2)c2ccc(Cl)cc2Cl)c(Cl)c1 (stereo not shown) [Miconazole, 1-[2-(2,4-Dichlorophenyl)-2-[(2,4-dichlorophenyl)methoxy]ethyl]-1H-imidazole]",MIC,"Clostridioides difficile, C. difficile clinical isolate 184, read-out: MIC",> 16 µg/mL
same,MIC,C. difficile clinical isolate 5,>16 µg/mL
same,MIC,C. difficile clinical isolate 23,>16 µg/mL
same,MIC,C. difficile clinical isolate 28,>16 µg/mL
same,MIC,C. difficile clinical isolate 30,>16 µg/mL
same,MIC,C. difficile clinical isolate 31,>16 µg/mL
same,MIC,C. difficile clinical isolate 41,>16 µg/mL
same,MIC,C. difficile clinical isolate 47,>16 µg/mL
same,MIC,C. difficile clinical isolate 57,>16 µg/mL
same,MIC,C. difficile clinical isolate 58,>16 µg/mL
same,MIC,C. difficile clinical isolate 77,>16 µg/mL
same,MIC,C. difficile clinical isolate 83,>16 µg/mL
same,MIC,C. difficile clinical isolate 84,>16 µg/mL
same,MIC,C. difficile clinical isolate 87,>16 µg/mL
same,MIC,C. difficile clinical isolate 96,>16 µg/mL
same,MIC,C. difficile clinical isolate 97,>16 µg/mL
same,MIC,C. difficile clinical isolate 98A,>16 µg/mL
same,MIC,C. difficile clinical isolate 99A,>16 µg/mL
same,MIC,C. difficile clinical isolate 102,>16 µg/mL
same,MIC,C. difficile clinical isolate 120,>16 µg/mL
same,MIC,C. difficile clinical isolate 126,>16 µg/mL
same,MIC,C. difficile clinical isolate 130,>16 µg/mL
same,MIC,C. difficile clinical isolate 169,>16 µg/mL
same,MIC,C. difficile clinical isolate 185,>16 µg/mL
same,MIC,C. difficile clinical isolate 186,>16 µg/mL
